# Experimental data: patent publication US6225350A, “Butyrate prodrugs derived from lactic acid” (Vertex Pharmaceuticals, Inc., priority 1999, dated 2001)
# Key:
# Hemoglobin F = test: Efficacy study in anemic rhesus monkeys: %Hb F by HPLC; type: in vivo
# [1] = rhesus monkey, in vivo
# Experimental: The efficacy of compound IIIc administered in conjunction with hydroxyurea was tested on six anemic rhesus monkeys divided into three groups of two each. Each group was studied in two phases, as shown below. Fetal hemoglobin cells (F cells), Hemoglobin F level in total Hemoglobin (%Hb F) and %y globin chain levels were monitored before and after each of the two phases. %F cells were measured according to the protocol described in Betke et al, Blut., 4, pp. 241-9 (1958). %Hb F and %y globin chain synthesis were measured using High Performance Liquid Chromatography (HPLC) according to the protocol described in Huisman, J. Chromagtogr., 418, pp. 277 (1987).
# [2] = system: Fetal hemoglobin cells (F cells); test: Efficacy study in anemic rhesus monkeys: %F cells; type: in vivo; conditions: for %F cell count: 8-10% before Phase I
# y globin chain = test: Efficacy study in anemic rhesus monkeys: %y globin chain by HPLC; type: in vivo
# pancreatic cancer cells = conditions: cited from earlier work
# [3] = system: retinoblastoma cell lines; conditions: Human Y-79 retinoblastoma cell line; cited from earlier work
# [4] = system: colorectal carcinoma cell lines; conditions: cited from earlier work
# leukemia = conditions: cited from earlier work
# Erythroleukemic Cells = conditions: cited from earlier work
# [5] = in vivo; cited from earlier work
# [6] = Group I (hydroxyurea in Phase I, hydroxyurea + compound IIIc in Phase II)
compound,measurement,setting,value
NC(=O)NO [Hydroxyurea],"%Hb F, change",Hemoglobin F; [6],measurable increase
same,levels of ALT prior to or during the phases,[1],no detectable difference
same,levels of the triglycerides prior to or during the phases,[1],no detectable difference
same,%F cell count,"[2]; Animal 1, group I, end of Phase I (hydroxyurea 50 mg/kg/day, 5 weeks)",25%
same,"%y-globin chain level, change",y globin chain; [6],measurable increase
CCCC(=O)[O-].[Na+] [Sodium butyrate],antigen expression in pancreatic cancer cells,pancreatic cancer cells,modify antigen expression
same,apoptosis in retinoblastoma cell lines,[3],induce apoptosis
same,apoptosis in colorectal carcinoma cell lines,[4],induce apoptosis
CCCC(=O)O[C@@H](C)C(=O)OCC [Compound IIIc],"HBf level, change",Hemoglobin F; Groups II and III,no measurable change
same,levels of ALT prior to or during the phases,[1],no detectable difference
same,levels of the triglycerides prior to or during the phases,[1],no detectable difference
same,%F cell count,"[2]; Animal 2, group II, end of Phase I (compound IIIc 1 g/kg/day, 5 weeks)",15%
same,%F cell count,"[2]; Animal 2, group II, end of Phase II (compound IIIc 1 g/kg/TID, 5 weeks)",22%
same,"%F cells, change",[2]; Groups II and III,small but significant increase
same,"Y-globin chain level, change",y globin chain; Groups II and III,no measurable change
CCCC(=O)O [butyric acid],effects in leukemia patients,leukemia,promising effects in leukemia patients
same,cell differentiation in vitro,Erythroleukemic Cells,induces cell differentiation
CCCC(=O)OCOC(=O)C(C)(C)C [AN-9],metabolites / toxic effects,[5],"elicit metabolites that may produce formaldehyde in vivo, leading to toxic effects in patients"
